Columns and labels:
[1] = biological target: Dual specificity mitogen-activated protein kinase kinase 2 (Homo sapiens) (UniProt P36507); assay: Inhibition of recombinant human MEK2 assessed as residual activity at 10 uM using MBP as substrate incubated for 40 mins in presence of [gamma-33ATP by scintillation counting based radiometry assay relative to control
[2] = biological target: Serine/threonine-protein kinase PLK3 (Homo sapiens) (UniProt Q9H4B4); assay: Inhibition of recombinant human Plk3 (19 to 301 residues) assessed as residual activity at 10 uM using casein as substrate incubated for 40 mins in presence of [gamma33P]ATP by scintillation counting based radiometry assay relative to control
[3] = organism: Mus musculus; assay: Inhibition of mouse Arg M982V/A562 mutant (27 to end residues) assessed as residual activity at 10 uM using EAIYAAPFAKKK as substrate incubated for 40 mins in presence of [gamma-33ATP] by scintillation counting based radiometry assay relative to control
[4] = organism: Mus musculus; assay: Inhibition of recombinant full length mouse PI3K p110/p85 E545K mutant assessed as residual activity at 10 uM using phosphatidylinositol-4, 5-bisphosphate as substrate incubated for 40 mins in presence of [gamma33P]ATP by scintillation counting based radiometry assay relative to control
[5] = test system: Hepatocyte growth factor receptor (Homo sapiens), P08581 [D1228N]; assay: Inhibition of recombinant human MET A1209G/V1290L/D1246N mutant (974 to end residues) assessed as residual activity at 10 uM using KKKGQEEEYVFIE as substrate incubated for 40 mins in presence of [gamma-33ATP by scintillation counting based radiometry assay relative to control
[6] = biological target: Fibroblast growth factor receptor 1 (Homo sapiens) (UniProt P11362); assay: Inhibition of recombinant human FGFR1 (456 to 765 residues) assessed as residual activity at 10 uM using KKKSPGEYVNIEF as substrate at 40 mins in presence of [gamma-33ATP] by scintillation counting based radiometry assay relative to control
Chain of Fibroblast growth factor receptor 1 (Homo sapiens) (P11362 22-822 limits assumed): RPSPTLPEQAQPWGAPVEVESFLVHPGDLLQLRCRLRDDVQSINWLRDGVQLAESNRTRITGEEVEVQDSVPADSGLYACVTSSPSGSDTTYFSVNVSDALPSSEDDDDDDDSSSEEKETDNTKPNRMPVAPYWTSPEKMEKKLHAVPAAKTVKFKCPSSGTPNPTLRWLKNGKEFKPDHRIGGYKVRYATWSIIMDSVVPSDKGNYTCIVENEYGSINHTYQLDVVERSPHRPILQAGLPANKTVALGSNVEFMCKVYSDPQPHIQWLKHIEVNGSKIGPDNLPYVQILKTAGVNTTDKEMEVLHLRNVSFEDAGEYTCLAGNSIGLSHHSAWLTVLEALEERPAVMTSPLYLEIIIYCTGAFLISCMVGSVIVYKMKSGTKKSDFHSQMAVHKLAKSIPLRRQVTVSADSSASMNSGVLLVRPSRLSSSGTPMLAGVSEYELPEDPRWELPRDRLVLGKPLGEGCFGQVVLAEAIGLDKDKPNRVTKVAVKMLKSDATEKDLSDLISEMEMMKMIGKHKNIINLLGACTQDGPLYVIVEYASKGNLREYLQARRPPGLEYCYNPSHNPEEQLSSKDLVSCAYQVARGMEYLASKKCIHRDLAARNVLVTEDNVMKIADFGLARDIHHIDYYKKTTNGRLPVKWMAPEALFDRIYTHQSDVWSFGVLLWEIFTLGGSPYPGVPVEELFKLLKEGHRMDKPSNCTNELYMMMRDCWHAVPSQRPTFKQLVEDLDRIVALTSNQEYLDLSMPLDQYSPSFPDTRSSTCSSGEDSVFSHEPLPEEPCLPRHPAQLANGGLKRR

[7] = test system: Epidermal growth factor receptor (Homo sapiens), P00533 [T790M]; assay: Inhibition of recombinant human EGFR T790M mutant (696 to end residues) assessed as residual activity at 10 uM using poly(Glu, Tyr) 4:1 as substrate at 40 mins in presence of [gamma-33ATP] by scintillation counting based radiometry assay relative to control
[8] = biological target: Homeodomain-interacting protein kinase 1 (Homo sapiens) (UniProt Q86Z02); assay: Inhibition of human HIPK1 (158 to 555 residues) assessed as residual activity at 10 uM using myelin basic protein as substrate after 40 mins by [gamma-33ATP] radiometric assay relative to control
Chain of Homeodomain-interacting protein kinase 1 (Homo sapiens) (Q86Z02 whole entry, looked up, the tested form may be a part): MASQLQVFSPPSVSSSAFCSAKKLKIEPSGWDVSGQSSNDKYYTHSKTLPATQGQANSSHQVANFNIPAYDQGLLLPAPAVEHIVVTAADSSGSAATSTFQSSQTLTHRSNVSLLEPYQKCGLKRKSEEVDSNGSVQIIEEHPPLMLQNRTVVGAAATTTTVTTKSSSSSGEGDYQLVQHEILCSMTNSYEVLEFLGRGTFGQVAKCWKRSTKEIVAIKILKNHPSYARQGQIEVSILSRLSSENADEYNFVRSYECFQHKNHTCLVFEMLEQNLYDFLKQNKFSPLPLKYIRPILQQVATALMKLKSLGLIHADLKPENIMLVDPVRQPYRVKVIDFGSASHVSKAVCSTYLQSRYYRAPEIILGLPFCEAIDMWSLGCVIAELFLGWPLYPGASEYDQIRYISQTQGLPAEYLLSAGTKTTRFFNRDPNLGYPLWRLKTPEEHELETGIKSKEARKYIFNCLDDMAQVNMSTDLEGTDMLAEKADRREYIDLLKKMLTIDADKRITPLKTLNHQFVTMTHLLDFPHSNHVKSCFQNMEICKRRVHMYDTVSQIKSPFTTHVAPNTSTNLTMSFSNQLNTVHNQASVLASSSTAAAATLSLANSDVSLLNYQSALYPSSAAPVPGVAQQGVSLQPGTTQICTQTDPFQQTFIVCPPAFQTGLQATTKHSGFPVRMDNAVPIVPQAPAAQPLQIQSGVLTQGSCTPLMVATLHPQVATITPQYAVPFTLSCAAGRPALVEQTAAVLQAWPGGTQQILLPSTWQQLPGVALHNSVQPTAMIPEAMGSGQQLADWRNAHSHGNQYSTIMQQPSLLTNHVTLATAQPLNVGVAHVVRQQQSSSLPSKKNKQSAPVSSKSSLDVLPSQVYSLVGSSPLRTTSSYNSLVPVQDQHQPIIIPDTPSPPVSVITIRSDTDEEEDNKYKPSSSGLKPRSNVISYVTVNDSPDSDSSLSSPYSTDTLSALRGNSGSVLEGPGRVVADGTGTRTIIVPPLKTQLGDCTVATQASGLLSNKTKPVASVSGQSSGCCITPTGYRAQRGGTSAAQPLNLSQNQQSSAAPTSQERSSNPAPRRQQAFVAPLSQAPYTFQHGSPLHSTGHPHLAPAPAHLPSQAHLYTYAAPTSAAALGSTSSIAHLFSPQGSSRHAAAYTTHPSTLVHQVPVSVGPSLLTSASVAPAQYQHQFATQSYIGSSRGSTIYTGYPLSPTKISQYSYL

[9] = biological target: Platelet-derived growth factor receptor alpha (Homo sapiens) (UniProt P16234); assay: Inhibition of human PDGFRalpha (550 to end residues) assessed as residual activity at 10 uM using poly(Glu, Tyr) 4:1 as substrate measured after 40 mins in presence of [gamma33P]ATP by scintillation counting based radiometry assay relative to control
[10] = biological target: Calcium/calmodulin-dependent protein kinase type II subunit delta (Homo sapiens) (UniProt Q13557); assay: Inhibition of recombinant full length human CaMK2delta assessed as residual activity at 10 uM using […] incubated for 40 mins in presence of [gamma-33ATP] by scintillation counting based radiometry assay relative to control
[11] = biological target: Tyrosine-protein kinase ABL2 (Homo sapiens) (UniProt P42684); assay: Inhibition of human Arg (38 to end residues) assessed as residual activity at 10 uM using EAIYAAPFAKKK as substrate incubated for 40 mins in presence of [gamma-33ATP] by scintillation counting based radiometry assay relative to control
[12] = test system: Hepatocyte growth factor receptor (Homo sapiens), P08581 [M1250T]; assay: Inhibition of recombinant human MET A1209G/V1290L/M1268T mutant (974 to end residues) assessed as residual activity at 10 uM using KKKGQEEEYVFIE as substrate incubated for 40 mins in presence of [gamma-33ATP by scintillation counting based radiometry assay relative to control
[13] = biological target: Serine/threonine-protein kinase tousled-like 1 (Homo sapiens) (UniProt Q9UKI8); assay: Inhibition of recombinant full-length human TLK1 assessed as residual activity at 10 uM using casein as substrate incubated for 40 mins in presence of [gamma33P]ATP by scintillation counting based radiometry assay relative to control
[14] = biological target: Calcium/calmodulin-dependent protein kinase type II subunit alpha (Homo sapiens) (UniProt Q9UQM7); assay: Inhibition of recombinant full length human CaMK2alpha assessed as residual activity at 10 uM using KKLNRTLSFAEPG as substrate incubated for 40 mins in presence of [gamma-33ATP] by scintillation counting based radiometry assay relative to control
Chain of Calcium/calmodulin-dependent protein kinase type II subunit alpha (Homo sapiens) (Q9UQM7 whole entry, the tested form may be a part): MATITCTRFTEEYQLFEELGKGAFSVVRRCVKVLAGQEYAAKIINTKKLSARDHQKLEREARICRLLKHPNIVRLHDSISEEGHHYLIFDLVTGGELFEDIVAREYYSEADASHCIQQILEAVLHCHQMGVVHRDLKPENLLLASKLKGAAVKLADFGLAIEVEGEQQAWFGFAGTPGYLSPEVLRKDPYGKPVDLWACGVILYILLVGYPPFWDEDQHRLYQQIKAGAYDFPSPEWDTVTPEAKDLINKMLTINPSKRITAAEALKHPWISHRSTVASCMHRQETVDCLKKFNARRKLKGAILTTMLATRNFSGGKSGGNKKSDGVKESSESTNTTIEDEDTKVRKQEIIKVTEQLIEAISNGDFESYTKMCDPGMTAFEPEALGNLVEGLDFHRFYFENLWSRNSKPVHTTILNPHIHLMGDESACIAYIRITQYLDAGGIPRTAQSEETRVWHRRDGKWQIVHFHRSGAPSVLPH

[15] = test system: Serine/threonine-protein kinase TAO3 (Homo sapiens), Q9H2K8 [UNDEFINED MUTATION]; assay: Inhibition of recombinant human TAO3 N47S mutant (1 to 411 residues) assessed as residual activity at 10 uM using myelin basic protein as substrate incubated for 40 mins in presence of [gamma33P]ATP by scintillation counting based radiometry assay relative to control
[16] = biological target: Cyclin-dependent kinase 5/CDK5 activator 1 (Homo sapiens) (UniProt Q00535+Q15078); assay: Inhibition of recombinant full length human CDK5/p35 assessed as residual activity at 10 uM using histone H1 as substrate incubated for 40 mins in presence of [gamma-33ATP] by scintillation counting based radiometry assay relative to control; assay type: protein-complex assay
Chain of Cyclin-dependent kinase 5/CDK5 activator 1 (Homo sapiens) (Q00535 whole entry): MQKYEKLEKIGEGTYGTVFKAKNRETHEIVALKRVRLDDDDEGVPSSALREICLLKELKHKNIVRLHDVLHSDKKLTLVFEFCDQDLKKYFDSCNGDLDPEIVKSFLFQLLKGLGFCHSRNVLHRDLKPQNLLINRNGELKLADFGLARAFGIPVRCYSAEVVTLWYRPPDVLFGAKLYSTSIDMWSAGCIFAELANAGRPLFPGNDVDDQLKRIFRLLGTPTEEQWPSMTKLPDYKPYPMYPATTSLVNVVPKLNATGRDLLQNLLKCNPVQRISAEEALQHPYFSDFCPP
Chain of Cyclin-dependent kinase 5/CDK5 activator 1 (Homo sapiens) (Q15078 99-307 partner limits assumed): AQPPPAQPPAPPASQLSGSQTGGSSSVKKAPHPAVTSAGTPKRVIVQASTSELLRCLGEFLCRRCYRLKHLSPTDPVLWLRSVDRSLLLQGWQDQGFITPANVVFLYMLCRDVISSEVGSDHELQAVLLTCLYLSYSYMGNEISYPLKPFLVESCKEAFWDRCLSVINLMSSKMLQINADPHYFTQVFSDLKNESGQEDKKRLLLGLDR

[17] = organism: Homo sapiens; assay: Inhibition of recombinant human full length PI3K p120gamma R459Q mutant assessed as residual activity at 10 uM using phosphatidylinositol-4, 5-bisphosphate as substrate incubated for 40 mins in presence of [gamma33P]ATP by scintillation counting based radiometry assay relative to control
[18] = biological target: Protein-tyrosine kinase 2-beta (Homo sapiens) (UniProt Q14289); assay: Inhibition of recombinant human full length PYK2 assessed as residual activity at 10 uM using poly(Glu, Tyr) 4:1 as substrate incubated for 40 mins in presence of [gamma33P]ATP by scintillation counting based radiometry assay relative to control
Chain of Protein-tyrosine kinase 2-beta (Homo sapiens) (Q14289 whole entry, looked up, the tested form may be a part): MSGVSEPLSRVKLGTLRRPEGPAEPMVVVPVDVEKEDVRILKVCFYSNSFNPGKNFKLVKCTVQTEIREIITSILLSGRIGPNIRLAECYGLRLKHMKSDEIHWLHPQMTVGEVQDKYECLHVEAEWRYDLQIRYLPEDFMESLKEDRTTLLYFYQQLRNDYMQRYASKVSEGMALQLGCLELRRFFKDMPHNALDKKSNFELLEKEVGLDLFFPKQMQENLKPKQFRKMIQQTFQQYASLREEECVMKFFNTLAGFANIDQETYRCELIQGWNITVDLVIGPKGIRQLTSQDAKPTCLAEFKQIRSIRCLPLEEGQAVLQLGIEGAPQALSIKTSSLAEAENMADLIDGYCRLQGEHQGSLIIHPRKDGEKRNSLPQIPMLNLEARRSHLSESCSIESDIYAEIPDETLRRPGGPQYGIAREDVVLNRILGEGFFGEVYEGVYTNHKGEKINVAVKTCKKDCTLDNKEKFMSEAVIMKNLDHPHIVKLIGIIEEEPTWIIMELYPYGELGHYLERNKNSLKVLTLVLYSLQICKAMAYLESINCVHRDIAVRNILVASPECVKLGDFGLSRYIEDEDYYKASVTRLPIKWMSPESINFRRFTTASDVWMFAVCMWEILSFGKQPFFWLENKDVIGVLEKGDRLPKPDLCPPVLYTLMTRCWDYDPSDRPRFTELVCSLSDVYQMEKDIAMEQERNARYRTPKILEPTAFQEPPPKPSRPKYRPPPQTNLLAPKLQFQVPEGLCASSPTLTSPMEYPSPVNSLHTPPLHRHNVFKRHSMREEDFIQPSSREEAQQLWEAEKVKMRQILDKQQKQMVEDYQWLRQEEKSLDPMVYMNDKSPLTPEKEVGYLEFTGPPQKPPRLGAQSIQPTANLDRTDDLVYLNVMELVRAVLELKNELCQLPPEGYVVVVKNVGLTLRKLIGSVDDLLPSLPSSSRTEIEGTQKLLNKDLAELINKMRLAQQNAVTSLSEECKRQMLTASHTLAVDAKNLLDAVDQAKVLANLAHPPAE

[19] = biological target: TRAF2 and NCK-interacting protein kinase (Homo sapiens) (UniProt Q9UKE5); assay: Inhibition of human TNIK (1 to 367 residues) assessed as residual activity at 10 uM using RLGRDKYKTLRQIRQ as substrate incubated for 40 mins in presence of [gamma33P]ATP by scintillation counting based radiometry assay relative to control
[20] = test system: Tyrosine-protein kinase Blk (Homo sapiens), P51451 [UNDEFINED MUTATION]; assay: Inhibition of recombinant full length human BLK M287V mutant assessed as residual activity at 10 uM using poly(Glu, Tyr) 4:1 as substrate incubated for 40 mins in presence of [gamma-33ATP] by scintillation counting based radiometry assay relative to control
Chain of Tyrosine-protein kinase Blk (Homo sapiens), P51451 [UNDEFINED MUTATION] (P51451 whole entry, looked up, stated change not applied, the tested form may be a part): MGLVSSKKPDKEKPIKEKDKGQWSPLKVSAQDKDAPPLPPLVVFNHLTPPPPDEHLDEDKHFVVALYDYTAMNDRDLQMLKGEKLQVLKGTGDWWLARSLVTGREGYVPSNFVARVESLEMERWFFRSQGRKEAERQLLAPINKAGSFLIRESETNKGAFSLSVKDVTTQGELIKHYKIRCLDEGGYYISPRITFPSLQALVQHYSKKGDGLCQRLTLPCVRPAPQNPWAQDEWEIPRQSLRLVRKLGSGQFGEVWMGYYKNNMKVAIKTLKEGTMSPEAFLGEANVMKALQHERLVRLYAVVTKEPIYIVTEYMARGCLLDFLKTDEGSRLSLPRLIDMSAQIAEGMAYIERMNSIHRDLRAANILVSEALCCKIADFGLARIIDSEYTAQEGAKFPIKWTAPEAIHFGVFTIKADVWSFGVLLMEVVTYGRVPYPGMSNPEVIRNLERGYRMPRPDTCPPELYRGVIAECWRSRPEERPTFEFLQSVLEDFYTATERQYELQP

[21] = biological target: Death-associated protein kinase 3 (Homo sapiens) (UniProt O43293); assay: Inhibition of recombinant human ZIPK (1 to 290 residues) assessed as residual activity at 10 uM using KKLNRTLSFAEPG substrate incubated for 40 mins in presence of [gamma33P]ATP by scintillation counting based radiometry assay relative to control

Chain of Dual specificity mitogen-activated protein kinase kinase 2 (Homo sapiens) (P36507 whole entry, the tested form may be a part): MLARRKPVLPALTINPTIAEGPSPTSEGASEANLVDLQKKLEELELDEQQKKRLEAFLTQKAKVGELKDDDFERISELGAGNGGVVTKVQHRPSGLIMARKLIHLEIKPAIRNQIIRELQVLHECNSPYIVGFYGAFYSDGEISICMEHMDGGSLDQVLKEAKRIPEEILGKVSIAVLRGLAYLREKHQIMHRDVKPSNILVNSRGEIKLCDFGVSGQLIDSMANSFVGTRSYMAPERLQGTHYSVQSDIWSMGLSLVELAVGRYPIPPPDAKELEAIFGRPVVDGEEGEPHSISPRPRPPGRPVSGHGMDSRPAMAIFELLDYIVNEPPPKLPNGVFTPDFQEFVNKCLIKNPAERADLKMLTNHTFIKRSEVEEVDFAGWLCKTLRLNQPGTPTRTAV

Compound `C[C@@H](c1ccccc1)n1nnc2cnc3ccc(-c4cnc5[nH]ccc5c4)cc3c21` has an Activity [1] of 92%, an Activity [2] of 71% and an Activity [3] of -1%. For the same compound, the Activity [4] was 1%, the Activity [5] was 55% and the Activity [6] was 34%. The Activity [7] was 59%, the Activity [8] was 78% and the Activity [9] was 95%. It also gave an Activity [10] of 68%, an Activity [11] of 1% and an Activity [12] of 45%. For the same compound, the Activity [13] was 99%, the Activity [14] was 50% and the Activity [15] was 68%. For the same compound, the Activity [16] was 84%, the Activity [17] was 16% and the Activity [18] was 59%. The Activity [19] was 16%, the Activity [20] was 8% and the Activity [21] was 69%.
